A word on the IC50: it is the concentration that inhibits the measured activity by half.

Structures are written as SMILES.

Chain of human PAD4 (hPAD4) (Q9UM07 whole entry): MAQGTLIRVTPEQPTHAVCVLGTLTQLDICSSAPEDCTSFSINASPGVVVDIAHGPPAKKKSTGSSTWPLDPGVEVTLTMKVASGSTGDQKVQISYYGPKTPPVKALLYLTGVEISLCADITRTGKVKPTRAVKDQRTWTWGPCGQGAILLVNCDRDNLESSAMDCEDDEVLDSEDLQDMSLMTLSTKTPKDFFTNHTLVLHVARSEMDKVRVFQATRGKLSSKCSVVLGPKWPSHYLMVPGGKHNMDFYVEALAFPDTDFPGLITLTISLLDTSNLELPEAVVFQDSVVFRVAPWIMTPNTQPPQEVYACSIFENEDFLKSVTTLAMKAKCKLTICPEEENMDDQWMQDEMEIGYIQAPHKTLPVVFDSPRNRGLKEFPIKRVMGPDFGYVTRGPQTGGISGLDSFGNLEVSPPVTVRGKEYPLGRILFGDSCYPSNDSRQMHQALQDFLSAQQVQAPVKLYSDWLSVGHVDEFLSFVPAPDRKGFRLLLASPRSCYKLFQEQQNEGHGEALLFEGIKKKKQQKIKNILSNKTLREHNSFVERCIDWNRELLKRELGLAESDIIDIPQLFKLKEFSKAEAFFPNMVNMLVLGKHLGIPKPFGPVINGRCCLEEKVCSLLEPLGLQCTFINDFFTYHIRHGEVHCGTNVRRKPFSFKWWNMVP

This experiment deals with human PAD4 (hPAD4) (Homo sapiens (Human), UniProt Q9UM07). The experiment is described as follows: RFMS Human PAD4 Functional Assay 1. Type of experiment: biochemical. The note with it: RFMS assay 1; 5 nM hPAD4, 250 μM BAEE substrate, 50 μM calcium, 37° C. Put shortly:
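Recombinant hPAD4 (5 nM) was preincubated with compound (top 50 μM, 0.5% DMSO) for 30 min at 37 °C, then reacted with 250 μM BAEE for 90 min at 37 °C in pH 7.5 HEPES buffer with 50 μM calcium and 5 μM TPEN. Product was derivatized with phenyl glyoxal and quantified by RapidFire MS.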
Take `Cc1c(-c2cc3ccc(-c4ccc5[nH]ncc5c4)cc3n2CC2CC2)nn2cc(C(=O)N3CC4CCC3[C@@H]4N)ccc12` (stereo partly drawn) [Example 333, (7R)-2-{2-[1-(Cyclopropylmethyl)-6-(1H-indazol-5-yl)-1H-indol-2-yl]-3-methylpyrazolo[1,5-a]pyridine-6-carbonyl}-2-azabicyclo[2.2.1]heptan-7-amine]: the IC50 is 20 nM.
The result for `Cc1cc(-c2ccc3cc(-c4nn5cc(C(=O)N6CC7CCC6[C@@H]7N)ccc5c4C)n(CC4CC4)c3c2)ccc1C(N)=O` (stereo partly drawn) [Example 334, 4-(2-{6-[(7R)-7-Amino-2-azabicyclo[2.2.1]heptane-2-carbonyl]-3-methylpyrazolo[1,5-a]pyridin-2-yl}-1-(cyclopropylmethyl)-1H-indol-6-yl)-2-methylbenzamide] reads 120 nM; that for `Cc1c(-c2cc3ccc(-c4ccc(C(N)=O)cc4C(F)(F)F)cc3n2CC2CC2)nn2cc(C(=O)N3CC4CCC3[C@@H]4N)ccc12` (stereo partly drawn) [Example 335, 4-(2-{6-[(7R)-7-Amino-2-azabicyclo[2.2.1]heptane-2-carbonyl]-3-methylpyrazolo[1,5-a]pyridin-2-yl}-1-(cyclopropylmethyl)-1H-indol-6-yl)-3-(trifluoromethyl)benzamide], 60 nM; that for `Cc1c(-c2cc3ccc(-c4ccc(Cl)c5c(NS(C)(=O)=O)nn(C)c45)cc3n2CC2CC2)nn2cc(C(=O)N3CC4CCC3[C@@H]4N)ccc12` (stereo partly drawn) [Example 337, N-[7-(2-{6-[(7R)-7-Amino-2-azabicyclo[2.2.1]heptane-2-carbonyl]-3-methylpyrazolo[1,5-a]pyridin-2-yl}-1-(cyclopropylmethyl)-1H-indol-6-yl)-4-chloro-1-methyl-1H-indazol-3-yl]methanesulfonamide], 20 nM.
As to `Cc1c(-c2cc3ccc(-c4ccccc4N4CCNC4=O)cc3n2CC2CC2)nn2cc(C(=O)N3CC4CCC3[C@@H]4N)ccc12` (stereo partly drawn) [Example 338, 1-[2-(2-{6-[(7R)-7-Amino-2-azabicyclo[2.2.1]heptane-2-carbonyl]-3-methylpyrazolo[1,5-a]pyridin-2-yl}-1-(cyclopropylmethyl)-1H-indol-6-yl)phenyl]imidazolidin-2-one], the IC50 came out at 50 nM.
The result for `Cc1c(-c2cc3ccc(-c4ccc(CNS(C)(=O)=O)cc4)cc3n2CC2CC2)nn2cc(C(=O)N3CCC[C@@H](N)C3)ccc12` [Example 342, N-{[4-(2-{6-[(3R)-3-Aminopiperidine-1-carbonyl]-3-methylpyrazolo[1,5-a]pyridin-2-yl}-1-(cyclopropylmethyl)-1H-indol-6-yl)phenyl]methyl}methanesulfonamide] reads 930 nM.
Regarding `CC(=O)NCc1cccc(-c2ccc3cc(-c4nn5cc(C(=O)N6CCC[C@@H](N)C6)ccc5c4C)n(CC4CC4)c3c2)c1` [Example 343, N-{[3-(2-{6-[(3R)-3-Aminopiperidine-1-carbonyl]-3-methylpyrazolo[1,5-a]pyridin-2-yl}-1-(cyclopropylmethyl)-1H-indol-6-yl)phenyl]methyl}acetamide], the IC50 is 50 nM.
The result for `Cc1c(-c2cc3ccc(-c4cccc(CO)c4)cc3n2CC2CC2)nn2cc(C(=O)N3CCC[C@@H](N)C3)ccc12` [Example 344, [3-(2-{6-[(3R)-3-Aminopiperidine-1-carbonyl]-3-methylpyrazolo[1,5-a]pyridin-2-yl}-1-(cyclopropylmethyl)-1H-indol-6-yl)phenyl]methanol] reads 470 nM; that for `Cc1c(-c2cc3ccc(-c4ccc5[nH]ccc5c4)cc3n2CC2CC2)nn2cc(C(=O)N3CCC[C@@H](N)C3)ccc12` [Example 345, (3R)-1-{2-[1′-(Cyclopropylmethyl)-1H,1′H-[5,6′-biindole]-2′-yl]-3-methylpyrazolo[1,5-a]pyridine-6-carbonyl}piperidin-3-amine], 790 nM; that for `Cc1c(-c2ccc3cc(-c4nn5cc(C(=O)N6CCC[C@@H](N)C6)ccc5c4C)n(CC4CC4)c3c2)cc(F)c2[nH]c(=O)ccc12` [Example 346, 6-(2-{6-[(3R)-3-Aminopiperidine-1-carbonyl]-3-methylpyrazolo[1,5-a]pyridin-2-yl}-1-(cyclopropylmethyl)-1H-indol-6-yl)-8-fluoro-5-methyl-1,2-dihydroquinolin-2-one], 60 nM.
The result for `Cc1c(-c2cc3ccc(-c4ccc(NS(C)(=O)=O)cc4)cc3n2CC2CC2)nn2cc(C(=O)N3CCC[C@@H](N)C3)ccc12` [Example 347, N-[4-(2-{6-[(3R)-3-Aminopiperidine-1-carbonyl]-3-methylpyrazolo[1,5-a]pyridin-2-yl}-1-(cyclopropylmethyl)-1H-indol-6-yl)phenyl]methanesulfonamide] reads 290 nM; that for `CC(=O)Nc1ccc(-c2ccc3cc(-c4nn5cc(C(=O)N6CCC[C@@H](N)C6)ccc5c4C)n(CC4CC4)c3c2)cn1` [Example 348, N-[5-(2-{6-[(3R)-3-Aminopiperidine-1-carbonyl]-3-methylpyrazolo[1,5-a]pyridin-2-yl}-1-(cyclopropylmethyl)-1H-indol-6-yl)pyridin-2-yl]acetamide], 140 nM.
The result for `Cc1c(-c2cc3ccc(-c4ccn5c(C)nnc5c4)cc3n2CC2CC2)nn2cc(C(=O)N3CCC[C@@H](N)C3)ccc12` [Example 349, (R)-(3-Aminopiperidin-1-yl)(2-(1-(cyclopropylmethyl)-6-(3-methyl-[1,2,4]triazolo[4,3-a]pyridin-7-yl)-1H-indol-2-yl)-3-methylpyrazolo[1,5-a]pyridin-6-yl)methanone] reads 100 nM; that for `Cc1c(-c2cc3ccc(N4CCOCC4)cc3n2CC2CC2)nn2cc(C(=O)N3CC4CCC3[C@@H]4N)ccc12` (stereo partly drawn) [Example 350, (7R)-2-{2-[1-(Cyclopropylmethyl)-6-(morpholin-4-yl)-1H-indol-2-yl]-3-methylpyrazolo[1,5-a]pyridine-6-carbonyl}-2-azabicyclo[2.2.1]heptan-7-amine], 30 nM.
Turning to `Cc1c(-c2cc3ccc(N4CCC(S(C)(=O)=O)CC4)cc3n2CC2CC2)nn2cc(C(=O)N3CC4CCC3[C@@H]4N)ccc12` (stereo partly drawn) [Example 351, (7R)-2-{2-[1-(Cyclopropylmethyl)-6-(4-methanesulfonylpiperidin-1-yl)-1H-indol-2-yl]-3-methylpyrazolo[1,5-a]pyridine-6-carbonyl}-2-azabicyclo[2.2.1]heptan-7-amine], the IC50 stood at 100 nM.
On to `COC(=O)N(C)C1CCN(c2ccc3cc(-c4nn5cc(C(=O)N6C[C@H](N)C[C@@H](F)C6)ccc5c4C)n(CC4CC4)c3c2)CC1` [Example 352, Methyl N-[1-(2-{6-[(3R,5R)-3-amino-5-fluoropiperidine-1-carbonyl]-3-methylpyrazolo[1,5-a]pyridin-2-yl}-1-(cyclopropylmethyl)-1H-indol-6-yl)piperidin-4-yl]-N-methylcarbamate], for which the IC50 came out at 810 nM.
The result for `CC(=O)N(C)C1CCN(c2ccc3cc(-c4nn5cc(C(=O)N6C[C@H](N)C[C@@H](F)C6)ccc5c4C)n(CC4CC4)c3c2)CC1` [Example 353, N-[1-(2-{6-[(3R,5R)-3-Amino-5-fluoropiperidine-1-carbonyl]-3-methylpyrazolo[1,5-a]pyridin-2-yl}-1-(cyclopropylmethyl)-1H-indol-6-yl)piperidin-4-yl]-N-methylacetamide] reads 610 nM.

For the origin of these results see patent publication US12473304B2, “Heterocyclic PAD4 inhibitors” (BRISTOL-MYERS SQUIBB COMPANY, priority 2020, dated 2025).
